Entries after “also recorded” stand apart in the source; their conditions may differ.
Tests used:
[1] = tested on: TCR; assay: Functional CD3 kappa assay: TCR expression on CD4+ PBMCs from healthy donors (antibody staining); format: cell-based, human; conditions: for TCR-expression: CD4+ cells from three healthy donors, FIG. 2A
Procedure: (§1) Heparinized full blood was layered on room-temperature LSM (density: 1.077 g/ml, Cambrex, Verviers, Belgium). After centrifugation at 400 g at 20° C. for 30 minutes, the interphase cells were isolated. The cells were washed twice with 50 ml PBS containing 2 mM EDTA and centrifuged at 300 g for 10 minutes at 20° C. The cell-pellet was resuspended in RPMI supplemented with 10% autologous serum, Pen/Strep, Gentamycin, Pyruvate, Hepes-buffer and L-Glutamine (Cambrex).
(§2) CD3 kappa or the control peptide was solubilized in RPMI with 1% human serum albumin (HSA, Calbiochem, Schwalbach, Germany) and 100 μM β-mercaptoethanol (β-ME, Invitrogene) at 10 mg/ml. PBMCs were incubated at 10^6 cells/ml with either peptide in the same medium and stained after on wash step with PBS with various antibodies (BD).
We synthesized the resulting 42 amino acids polypeptide without the signal sequence resulting in the CD3 kappa peptide having the amino acid sequence according to SEQ ID NO:4. All following experiments were performed with freshly isolated PBMCs from healthy donors in the presence of the 42-mer CD3-kappa or of a control peptide (consisting of the same amino acid composition and length but with a random sequence). […] The control peptide had no effect on TCR expression. Concentrations up to 1 mg/ml CD3-kappa induced a maximal response after 24 h resulting in a six fold upregulation of the TCR.

[2] = tested on: CD4; assay: Functional CD3 kappa assay: CD4 expression on PBMCs from healthy donors; format: cell-based, human; conditions: over 6 d, FIG. 2B
Procedure: as §1, §2
The TCR-expression level was stabilized after treatment with CD3-kappa in a majority of the CD4 cells, while untreated cells quickly converted to a low TCR expression state. Only at day 6 did the CD3-kappa treated cells show a decline in TCR expression.

[3] = tested on: PBMCs; assay: Functional CD3 kappa assay: cell surface markers and cytokine/chemokine receptors on PBMCs; format: cell-based, human; conditions: after six days; for expression of CD25 / expression of CD116: FIGS. 4a/4b
Procedure: as §1, §2

[4] = tested on: PBMCs; assay: Protein microarrays (human cytokine micro arrays 6.1 and 7.1) of secreted factors in culture supernatant; format: cell-based; conditions: for amount of EGF in the supernatant / amount of Eotaxin-2 in the supernatant / amount of GRO in the supernatant / amount of I-309 in the supernatant / amount of IFNγ in the supernatant / amount of IL-1ra in the supernatant / amount of IL-1α in the supernatant / amount of IL-1β in the supernatant / amount of IL-3 in the supernatant / amount of IL-6 in the supernatant / amount of IL-8 in the supernatant / amount of MCP-4 in the supernatant / amount of NAP-2 in the supernatant / amount of PARC in the supernatant / amount of RANTES in the supernatant / amount of SDF-1 in the supernatant / amount of TARC in the supernatant / amount of TGFβ3 in the supernatant / amount of soluble IL-6 Receptor in the supernatant / amount of soluble TNF-Receptor II in the supernatant: FIGS. 3b and 3c
Procedure: All reagents were from Raybiotech (Hilden, Germany). 2 ml supernatant from cultures with 5×10^6 cells/ml was mixed with blocking buffer (BB) and pipetted to blocked human cytokine micro arrays 6.1 and 7.1. After overnight incubation, the membranes were washed three times with wash buffer I and two times with wash buffer II. Anti-cytokine antibodies were added in 2 ml BB. After incubation and wash as described above, 2 ml streptavidin-HRP was added. Again after incubation and wash as described above, detection solution was added and exposure for 18 h to X-ray films were performed.

[5] = tested on: TCR; assay: TCR expression in PBMCs from patients recovering from T-cell toxic chemotherapy (fludarabine); format: cell-based, human
Procedure: as §2
CD3 zeta is synthesized at about 10% of the rate as the other CD3-complex proteins being the limiting component for a correct assembly of the CD3/TCR complex. A maximal upregulation of CD3 zeta can therefore result in a 10-fold upregulation of the TCR. The higher capability of CD3 kappa to upregulate the surface TCR expression might be explained with a reduced need of some of the CD3-complex components.

[6] = peripheral blood mononuclear cells, in vitro

SESVNISTNVNRFHTFPYCEIAEVSCRSKVRIELDLQSPESS (MISC_FEATURE: synthetic) [control peptide, reference compound]
TCR-expression ([1]; after 24 h): no effect

SQVSPFKIPIEELEDRVFVNCNTSIYRASSLSN CRHTSSVEE (SQVSPFKIPIEELEDRVFVNCNTSIYRASSLSNCRHTSSVEE) [CD3 kappa, 42 amino acid long synthesized peptide, splice variant of CD3 delta without the signal peptide]
concentration giving detectable TCR-upregulation ([1]; CD4+ cells from healthy donors, 24 h): ≥ 0.1 mg/mL
TCR-expression ([1]; after 24 h): concentration dependent increase
TCR expression over time ([1]; PBMCs / CD4 cells, over the next 6 days, FIG. 2B): remarkable and sustained increase; also recorded: stabilized
upregulation of the TCR (maximal response) ([1]; PBMCs from healthy donors, up to 1 mg/ml, after 24 h): six
influence of stimulation with PMA and ionomycin on the TCR increase ([1]; cells stimulated with PMA and ionomycin): did not affect this finding
TCR expression at day 6 ([1]; day 6): decline
CD4 expression [2]: up-regulation
expression of CD2 ([3]; FIG. 3a): up-regulation
expression of CD58 ([3]; FIG. 3a): down regulated
expression of CD127 ([3]; FIG. 3a): up-regulation
expression of CD2 ([3]; FIG. 3a, listed as CD3-kappa): increase
expression of CD127 ([3]; FIG. 3a, listed as CD3-kappa): increase
expression of CD38 ([3]; FIG. 4a): not changed
expression of CD44 ([3]; FIG. 4a): not changed
expression of CD45RA ([3]; FIG. 4a): not changed
expression of CD45RO ([3]; FIG. 4a): not changed
expression of CD62L ([3]; FIG. 4a): not changed
expression of CD95 ([3]; FIG. 4a): not changed
expression of HLA-ABC ([3]; FIG. 4a): not changed
expression of HLA-DR, DP, DQ ([3]; FIG. 4a): not changed
expression of LAIR ([3]; FIG. 4a): not changed
non-T-cell markers ([3]; FIG. 4a): not affected
expression of CCR3 ([3]; FIG. 4b): up-regulation
expression of CCR9 ([3]; FIG. 4b): up-regulation
expression of CXCR1 ([3]; FIG. 4b): up-regulation
expression of CXCR3 ([3]; FIG. 4b): slight upregulation
expression of CXCR4 ([3]; FIG. 4b): slight upregulation
expression of CCR3 ([3]; FIG. 4b, listed as CD3-kappa): increase
expression of CCR9 ([3]; FIG. 4b, listed as CD3-kappa): increase
expression of CXCR1 ([3]; FIG. 4b, listed as CD3-kappa): increase
expression of CD25 [3]: up-regulation
expression of CD116 [3]: up-regulation
expression of CD25 ([3]; listed as CD3-kappa): increase
expression of CD116 ([3]; listed as CD3-kappa): increase
amount of EGF in the supernatant [4]: increased release
amount of Eotaxin-2 in the supernatant [4]: increased release
amount of GRO in the supernatant [4]: decreased release
amount of I-309 in the supernatant [4]: increased release
amount of IFNγ in the supernatant [4]: increased release
amount of IL-1ra in the supernatant [4]: decreased release
amount of IL-1α in the supernatant [4]: increased release
amount of IL-1β in the supernatant [4]: increased release
amount of IL-3 in the supernatant [4]: increased release
amount of IL-6 in the supernatant [4]: increased release
amount of IL-8 in the supernatant [4]: decreased release
amount of MCP-4 in the supernatant [4]: decreased release
amount of NAP-2 in the supernatant [4]: increased release
amount of PARC in the supernatant [4]: increased release
amount of RANTES in the supernatant [4]: decreased release
amount of SDF-1 in the supernatant [4]: decreased release
amount of TARC in the supernatant [4]: decreased release
amount of TGFβ3 in the supernatant [4]: increased release
amount of soluble IL-6 Receptor in the supernatant [4]: decreased release
amount of soluble TNF-Receptor II in the supernatant [4]: decreased release
amount of EGF in the supernatant ([4]; listed as CD3-kappa): increased
amount of Eotaxin-2 in the supernatant ([4]; listed as CD3-kappa): increased
amount of GRO in the supernatant ([4]; listed as CD3-kappa): decreased
amount of I-309 in the supernatant ([4]; listed as CD3-kappa): increased
amount of IFNγ in the supernatant ([4]; listed as CD3-kappa): increased
amount of IL-1ra in the supernatant ([4]; listed as CD3-kappa): decreased
amount of IL-1α in the supernatant ([4]; listed as CD3-kappa): increased
amount of IL-1β in the supernatant ([4]; listed as CD3-kappa): increased
amount of IL-3 in the supernatant ([4]; listed as CD3-kappa): increased
amount of IL-6 in the supernatant ([4]; listed as CD3-kappa): increased
amount of IL-8 in the supernatant ([4]; listed as CD3-kappa): decreased
amount of MCP-4 in the supernatant ([4]; listed as CD3-kappa): decreased
amount of NAP-2 in the supernatant ([4]; listed as CD3-kappa): increased
amount of PARC in the supernatant ([4]; listed as CD3-kappa): increased
amount of RANTES in the supernatant ([4]; listed as CD3-kappa): decreased
amount of SDF-1 in the supernatant ([4]; listed as CD3-kappa): decreased
amount of TARC in the supernatant ([4]; listed as CD3-kappa): decreased
amount of TGFβ3 in the supernatant ([4]; listed as CD3-kappa): increased
amount of soluble IL-6 Receptor in the supernatant ([4]; listed as CD3-kappa): decreased
amount of soluble TNF-Receptor II in the supernatant ([4]; listed as CD3-kappa): decreased
duration of the changes in secretion [4, 6]: up to eight
time after addition at which the changes in secretion occur [4, 6]: about 24 h
decreased TCR expression of patients after treatment ([5]; PBMCs / T lymphocytes from patients with decreased TCR expression, compared with healthy individuals): restored to normal levels; also recorded: increased in a statistically significant manner
TCR upregulation ([5]; PBMCs from patients recovering from fludarabine treatment, after 48 h treatment, FIG. 5): 25 fold
